Values of other authors, collected in publication PMC11547388, “Toxicokinetics and Tissue Distribution of the Hepatotoxic Triterpenoid Saponin Pterocephin A in Rats Using the Ultra-Performance Liquid Chromatography–Tandem Mass Spectrometry (UPLC-MS/MS) Method” (Molecules, 2024).

Parameters: method as in PMID 37253396
Settings: in vivo, HPLC-QQQ-MS/MS

Structure (SMILES): C=C(C)[C@@H]1CC[C@]2(C(=O)O[C@@H]3O[C@H](CO[C@@H]4O[C@H](CO)[C@@H](O[C@@H]5O[C@@H](C)[C@H](O)[C@@H](O)[C@H]5O)[C@H](O)[C@H]4O)[C@@H](O)[C@H](O)[C@H]3O)CC[C@]3(C)[C@H](CC[C@@H]4[C@@]5(C)CC[C@H](O[C@@H]6OC[C@H](O)[C@H](O)[C@H]6O[C@@H]6O[C@@H](C)[C@H](O)[C@@H](O)[C@H]6O)[C@@](C)(CO)[C@@H]5CC[C@]43C)[C@@H]12 [AB4, anemoside B4]
- bioavailability: less than 1%
